# Legend:
# Nucleic Acid = conditions: Bos taurus
# Description: Increase of calf thymus DNA denaturation temperature (delta Tm)
# Staphylococcus aureus = assay: microbe, parasite or virus in culture
# Description: Tested for antimicrobial activity against Staphylococcus aureus PCM 458 at concentration of 0.01-5 uM/mL
# Micrococcus luteus = assay: microbe, parasite or virus in culture
# Description: Tested for antimicrobial activity against Micrococcus luteus PCM 525 at concentration of 0.01-5 uM/mL
# Candida albicans = assay: microbe, parasite or virus in culture
# Description: Tested for antimicrobial activity against Candida albicans (clinical isolate) at concentration of 0.01-5 uM/mL
# Trichophyton benhamiae = assay: microbe, parasite or virus in culture
# Description: Tested for antimicrobial activity against Trichophyton mentagrophytes (clinical isolate) at concentration of 0.01-5 uM/mL
# Description for KB: Cytotoxicity in vitro against KB cell line
# Description for physchem: Acid ionization constant is determined
SMILES,pKa (physchem),ΔTm (Nucleic Acid),ID50 (KB),MIC (Staphylococcus aureus),MIC (Micrococcus luteus),MIC (Candida albicans),MIC (Trichophyton benhamiae)
c1ccc2[nH]c3nc4ccccc4c-3cc2c1,5.55,0.3 °C,0.6 uM ml-1,–,–,–,–
Cc1cccc2c(C)c3c(nc12)[nH]c1ccccc13,5.78,1.1 °C,0.1 uM ml-1,–,–,–,–
COc1cccc2c1C(=O)c1c(O)c3c(c(O)c1C2=O)C[C@@](O)(C(=O)CO)C[C@@H]3O[C@H]1C[C@H](N)[C@H](O)[C@H](C)O1,–,13 °C,–,–,–,–,–
Cc1c2ccncc2c(C)c2c1[nH]c1ccccc12 [ELLIPTECINE],7.4,9.8 °C,0.07 uM ml-1,–,–,–,–
Cn1c2nc3ccccc3c-2cc2ccccc21 [NEOCRYPTOLEPINE],7.24,5.2 °C,0.006 uM ml-1,250 µM,250 µM,120 µM,60 µM
Cc1ccc2[nH]c3nc4ccccc4c(C)c3c2c1,5.8,0.9 °C,0.1 uM ml-1,–,–,–,–
Cc1ccc2nc3n(C)c4ccc(C)cc4c(C)c-3c2c1,7.68,19 °C,0.002 uM ml-1,30 µM,15 µM,15 µM,30 µM
Cc1c2c3ccccc3nc-2n(C)c2ccccc12,7.45,11 °C,0.004 uM ml-1,120 µM,60 µM,30 µM,60 µM
Cc1ccc2nc3[nH]c4ccc(C)cc4c(C)c-3c2c1,5.98,1.6 °C,0.1 uM ml-1,–,–,–,–
Cc1ccc2c(c1)c(C)c1c3ccccc3nc-1n2C,7.6,13.3 °C,0.003 uM ml-1,60 µM,30 µM,15 µM,30 µM
Cc1c2c3ccccc3nc-2n(C)c2c(C)cccc12,7.62,10.4 °C,0.009 uM ml-1,250 µM,120 µM,120 µM,60 µM
Cc1ccc2[nH]c3nc4ccccc4c-3c(C)c2c1,5.73,1.4 °C,0.1 uM ml-1,–,–,–,–
Cc1c2c3ccccc3nc-2[nH]c2ccccc12,5.7,0.7 °C,0.2 uM ml-1,–,–,–,–

# — ChEMBL document CHEMBL1127370, “Synthesis and structure-activity relationship of methyl-substituted indolo[2,3-b]quinolines: novel cytotoxic, DNA topoisomerase II inhibitors” (J Med Chem, 1994)
